Measurements published in ChEMBL document CHEMBL1145263, “Redox-responsive and calcium-dependent switching of glycosyldisulfide interactions with Concanavalin A” (Bioorg Med Chem Lett, 2005).

Assays:
[1] = (§1) Inhibitory concentration against mannan binding relative to concanavalin A; Using QCM(quartz crystal microbalance) assay
[2] = Inhibitory concentration against mannan binding relative to concanavalin A; Using QCM(quartz crystal microbalance) assay; NA= Not active
[3] = as §1; remark: listed apart in the source

Row | SMILES | IC50 [1] [µM] | IC50 [2] | also measured
1 | OC[C@H]1OC(O)[C@@H](O)[C@@H](O)[C@@H]1O (stereo partly drawn) [D-MANNOSE] | 5300 |  | 
2 | COC1O[C@H](CSSCC2O[C@H](OC)C(O)[C@@H](O)[C@@H]2O)C(O)[C@@H](O)[C@@H]1O (stereo partly specified) |  | Not Active | 
3 | CC(=O)NC1C(O)[C@@H](O)C(CO)O[C@H]1SS[C@@H]1OC(CO)[C@H](O)[C@@H](O)C1NC(C)=O (single isomer, unassigned) |  | Not Active | 
4 | OCC1O[C@H](S)C(O)[C@@H](O)[C@@H]1O (stereo partly specified) |  |  | Inhibition [3]: 10 mM
5 | CC(=O)NC1[C@@H](O)[C@H](O)C(CO)O[C@H]1SS[C@@H]1OC(CO)[C@@H](O)[C@@H](O)C1NC(C)=O (stereo in doubt) | 2000 |  | 
6 | CO[C@H]1O[C@H](CO)[C@@H](O)[C@H](O)[C@@H]1O | 1100 |  | 
